± gives the expanded uncertainty stated by the source.
Conditions: Hot wire method

Work on `F/C=C/C(F)(F)F` [trans-1,3,3,3-tetrafluoropropene] yielded a thermal conductivity (293.73 K, 303 kPa, Gas) of 0.01311 ± 0.00045 W/m/K, a thermal conductivity (293.77 K, 95 kPa, Gas) of 0.0133 ± 0.00045 W/m/K and a thermal conductivity (293.85 K, 231 kPa, Gas) of 0.01317 ± 0.00045 W/m/K. It also gave a thermal conductivity (293.9 K, 400 kPa, Gas) of 0.01318 ± 0.00045 W/m/K, a thermal conductivity (294.04 K, 155 kPa, Gas) of 0.01319 ± 0.00045 W/m/K and a thermal conductivity (294.06 K, 345 kPa, Gas) of 0.01312 ± 0.00045 W/m/K. The thermal conductivity (294.27 K, 95 kPa, Gas) was 0.01329 ± 0.00045 W/m/K, the thermal conductivity (294.45 K, 343 kPa, Gas) was 0.01318 ± 0.00045 W/m/K and the thermal conductivity (301.02 K, 868 kPa, Liquid) was 0.07405 ± 0.00082 W/m/K. It also gave a thermal conductivity (301.09 K, 873 kPa, Liquid) of 0.07375 ± 0.00082 W/m/K, a thermal conductivity (301.25 K, 21041 kPa, Liquid) of 0.08609 ± 0.00095 W/m/K and a thermal conductivity (301.27 K, 15433 kPa, Liquid) of 0.08285 ± 0.00091 W/m/K. The thermal conductivity (301.28 K, 15438 kPa, Liquid) was 0.08293 ± 0.001 W/m/K, the thermal conductivity (301.32 K, 10268 kPa, Liquid) was 0.07996 ± 0.00088 W/m/K and the thermal conductivity (301.32 K, 21030 kPa, Liquid) was 0.08586 ± 0.00094 W/m/K. For the same molecule, the thermal conductivity (301.33 K, 5341 kPa, Liquid) was 0.07696 ± 0.00085 W/m/K, the thermal conductivity (301.35 K, 15435 kPa, Liquid) was 0.08267 ± 0.00092 W/m/K and the thermal conductivity (301.36 K, 15436 kPa, Liquid) was 0.08267 ± 0.00092 W/m/K. For the same molecule, the thermal conductivity (301.39 K, 877 kPa, Liquid) was 0.07371 ± 0.00082 W/m/K, the thermal conductivity (301.4 K, 10267 kPa, Liquid) was 0.07978 ± 0.00088 W/m/K and the thermal conductivity (301.41 K, 810 kPa, Liquid) was 0.07351 ± 0.00082 W/m/K. For the same molecule, the thermal conductivity (301.41 K, 5340 kPa, Liquid) was 0.07676 ± 0.00085 W/m/K, the thermal conductivity (301.47 K, 877 kPa, Liquid) was 0.07359 ± 0.00082 W/m/K and the thermal conductivity (301.48 K, 201 kPa, Gas) was 0.01405 ± 0.00048 W/m/K. It also gave a thermal conductivity (301.5 K, 101 kPa, Gas) of 0.01387 ± 0.00047 W/m/K, a thermal conductivity (301.5 K, 812 kPa, Liquid) of 0.07342 ± 0.00082 W/m/K and a thermal conductivity (301.64 K, 15430 kPa, Liquid) of 0.0828 ± 0.00091 W/m/K. For the same molecule, the thermal conductivity (301.69 K, 10267 kPa, Liquid) was 0.07986 ± 0.00088 W/m/K, the thermal conductivity (301.7 K, 201 kPa, Gas) was 0.01393 ± 0.00047 W/m/K and the thermal conductivity (301.71 K, 21026 kPa, Liquid) was 0.08586 ± 0.00094 W/m/K. For the same molecule, the thermal conductivity (301.72 K, 5338 kPa, Liquid) was 0.07673 ± 0.00085 W/m/K, the thermal conductivity (301.73 K, 101 kPa, Gas) was 0.01377 ± 0.00047 W/m/K and the thermal conductivity (301.74 K, 15425 kPa, Liquid) was 0.08254 ± 0.00091 W/m/K. For the same molecule, the thermal conductivity (301.75 K, 15438 kPa, Liquid) was 0.08085 ± 0.00089 W/m/K, the thermal conductivity (301.8 K, 875 kPa, Liquid) was 0.07346 ± 0.00081 W/m/K and the thermal conductivity (301.81 K, 10267 kPa, Liquid) was 0.07952 ± 0.00088 W/m/K. The thermal conductivity (301.82 K, 21035 kPa, Liquid) was 0.08546 ± 0.00094 W/m/K, the thermal conductivity (301.83 K, 5339 kPa, Liquid) was 0.07652 ± 0.00085 W/m/K and the thermal conductivity (301.9 K, 871 kPa, Liquid) was 0.07331 ± 0.00081 W/m/K. It also gave a thermal conductivity (301.92 K, 820 kPa, Liquid) of 0.07315 ± 0.00081 W/m/K, a thermal conductivity (301.95 K, 201 kPa, Gas) of 0.01381 ± 0.00047 W/m/K and a thermal conductivity (301.98 K, 101 kPa, Gas) of 0.01368 ± 0.00046 W/m/K. It also gave a thermal conductivity (302.06 K, 15424 kPa, Liquid) of 0.08252 ± 0.00091 W/m/K, a thermal conductivity (302.07 K, 283 kPa, Gas) of 0.01426 ± 0.00048 W/m/K and a thermal conductivity (302.13 K, 10265 kPa, Liquid) of 0.07959 ± 0.00088 W/m/K. The thermal conductivity (302.17 K, 5336 kPa, Liquid) was 0.0765 ± 0.00085 W/m/K, the thermal conductivity (302.2 K, 201 kPa, Gas) was 0.01376 ± 0.00047 W/m/K and the thermal conductivity (302.23 K, 21022 kPa, Liquid) was 0.08536 ± 0.00094 W/m/K. For the same molecule, the thermal conductivity (302.24 K, 102 kPa, Gas) was 0.01362 ± 0.00046 W/m/K, the thermal conductivity (302.26 K, 867 kPa, Liquid) was 0.07328 ± 0.00082 W/m/K and the thermal conductivity (302.26 K, 10266 kPa, Liquid) was 0.07933 ± 0.00088 W/m/K. The thermal conductivity (302.28 K, 278 kPa, Gas) was 0.01416 ± 0.00048 W/m/K, the thermal conductivity (302.28 K, 835 kPa, Liquid) was 0.07308 ± 0.00081 W/m/K and the thermal conductivity (302.31 K, 5328 kPa, Liquid) was 0.07627 ± 0.00084 W/m/K. It also gave a thermal conductivity (302.38 K, 21010 kPa, Liquid) of 0.0851 ± 0.00094 W/m/K, a thermal conductivity (302.4 K, 858 kPa, Liquid) of 0.07303 ± 0.00081 W/m/K and a thermal conductivity (302.43 K, 15441 kPa, Liquid) of 0.08206 ± 0.00091 W/m/K. It also gave a thermal conductivity (302.46 K, 201 kPa, Gas) of 0.01371 ± 0.00046 W/m/K, a thermal conductivity (302.51 K, 101 kPa, Gas) of 0.01358 ± 0.00046 W/m/K and a thermal conductivity (302.51 K, 273 kPa, Gas) of 0.01407 ± 0.00048 W/m/K. For the same molecule, the thermal conductivity (302.51 K, 345 kPa, Gas) was 0.01391 ± 0.00047 W/m/K, the thermal conductivity (302.52 K, 15424 kPa, Liquid) was 0.08203 ± 0.00091 W/m/K and the thermal conductivity (302.61 K, 10265 kPa, Liquid) was 0.07929 ± 0.00088 W/m/K. The thermal conductivity (302.67 K, 5319 kPa, Liquid) was 0.07625 ± 0.00085 W/m/K, the thermal conductivity (302.68 K, 15424 kPa, Liquid) was 0.08166 ± 0.00091 W/m/K and the thermal conductivity (302.74 K, 270 kPa, Gas) was 0.01405 ± 0.00048 W/m/K. It also gave a thermal conductivity (302.77 K, 10264 kPa, Liquid) of 0.079 ± 0.00087 W/m/K, a thermal conductivity (302.78 K, 847 kPa, Liquid) of 0.07298 ± 0.00081 W/m/K and a thermal conductivity (302.8 K, 868 kPa, Liquid) of 0.07244 ± 0.00082 W/m/K. For the same molecule, the thermal conductivity (302.84 K, 5317 kPa, Liquid) was 0.07599 ± 0.00085 W/m/K, the thermal conductivity (302.84 K, 21005 kPa, Liquid) was 0.08503 ± 0.00093 W/m/K and the thermal conductivity (302.86 K, 345 kPa, Gas) was 0.01388 ± 0.00047 W/m/K. The thermal conductivity (302.91 K, 15440 kPa, Liquid) was 0.08218 ± 0.0009 W/m/K, the thermal conductivity (302.94 K, 321 kPa, Gas) was 0.01444 ± 0.00049 W/m/K and the thermal conductivity (302.99 K, 267 kPa, Gas) was 0.01402 ± 0.00047 W/m/K. It also gave a thermal conductivity (303 K, 21003 kPa, Liquid) of 0.08496 ± 0.00093 W/m/K, a thermal conductivity (303.03 K, 15420 kPa, Liquid) of 0.08154 ± 0.00091 W/m/K and a thermal conductivity (303.06 K, 201 kPa, Gas) of 0.01387 ± 0.00047 W/m/K. The thermal conductivity (303.09 K, 515 kPa, Gas) was 0.01405 ± 0.00048 W/m/K, the thermal conductivity (303.1 K, 443 kPa, Gas) was 0.01398 ± 0.00047 W/m/K and the thermal conductivity (303.15 K, Liquid) was 0.07268 ± 0.00049 W/m/K. For the same molecule, the thermal conductivity (303.22 K, 15419 kPa, Liquid) was 0.08081 ± 0.00089 W/m/K, the thermal conductivity (303.24 K, 345 kPa, Gas) was 0.01392 ± 0.00047 W/m/K and the thermal conductivity (303.3 K, 101 kPa, Gas) was 0.01415 ± 0.00048 W/m/K. It also gave a thermal conductivity (303.42 K, 515 kPa, Gas) of 0.01408 ± 0.00048 W/m/K, a thermal conductivity (303.44 K, 443 kPa, Gas) of 0.01405 ± 0.00048 W/m/K and a thermal conductivity (303.46 K, 201 kPa, Gas) of 0.01405 ± 0.00048 W/m/K. For the same molecule, the thermal conductivity (303.5 K, 21000 kPa, Liquid) was 0.08483 ± 0.00093 W/m/K, the thermal conductivity (303.63 K, 345 kPa, Gas) was 0.01394 ± 0.00047 W/m/K and the thermal conductivity (303.77 K, 515 kPa, Gas) was 0.01408 ± 0.00048 W/m/K. It also gave a thermal conductivity (303.8 K, 441 kPa, Gas) of 0.01404 ± 0.00048 W/m/K, a thermal conductivity (303.82 K, 515 kPa, Gas) of 0.01409 ± 0.00048 W/m/K and a thermal conductivity (303.89 K, 201 kPa, Gas) of 0.01411 ± 0.00048 W/m/K. The thermal conductivity (304.06 K, 345 kPa, Gas) was 0.01397 ± 0.00047 W/m/K, the thermal conductivity (304.14 K, 515 kPa, Gas) was 0.01407 ± 0.00048 W/m/K and the thermal conductivity (304.18 K, 102 kPa, Gas) was 0.01422 ± 0.00048 W/m/K. The thermal conductivity (304.18 K, 441 kPa, Gas) was 0.01406 ± 0.00048 W/m/K, the thermal conductivity (304.34 K, 201 kPa, Gas) was 0.01397 ± 0.00047 W/m/K and the thermal conductivity (304.53 K, 514 kPa, Gas) was 0.01408 ± 0.00048 W/m/K. For the same molecule, the thermal conductivity (304.57 K, 442 kPa, Gas) was 0.01401 ± 0.00047 W/m/K, the thermal conductivity (304.57 K, 514 kPa, Gas) was 0.0141 ± 0.00048 W/m/K and the thermal conductivity (304.66 K, 101 kPa, Gas) was 0.0142 ± 0.00048 W/m/K. It also gave a thermal conductivity (311.41 K, 326 kPa, Gas) of 0.01522 ± 0.00051 W/m/K, a thermal conductivity (311.43 K, 200 kPa, Gas) of 0.01495 ± 0.0005 W/m/K and a thermal conductivity (311.44 K, 102 kPa, Gas) of 0.01483 ± 0.0005 W/m/K. The thermal conductivity (311.61 K, 325 kPa, Gas) was 0.01511 ± 0.00051 W/m/K, the thermal conductivity (311.65 K, 200 kPa, Gas) was 0.01482 ± 0.0005 W/m/K and the thermal conductivity (311.67 K, 102 kPa, Gas) was 0.01465 ± 0.00049 W/m/K. For the same molecule, the thermal conductivity (311.83 K, 325 kPa, Gas) was 0.01504 ± 0.00051 W/m/K, the thermal conductivity (311.89 K, 200 kPa, Gas) was 0.0147 ± 0.0005 W/m/K and the thermal conductivity (311.91 K, 101 kPa, Gas) was 0.01455 ± 0.00049 W/m/K. It also gave a thermal conductivity (312.06 K, 325 kPa, Gas) of 0.015 ± 0.001 W/m/K, a thermal conductivity (312.14 K, 200 kPa, Gas) of 0.01462 ± 0.00049 W/m/K and a thermal conductivity (312.16 K, 101 kPa, Gas) of 0.01449 ± 0.00049 W/m/K.

From the NIST ThermoML archive (doi:10.1021/je200811n)
